From ChEMBL document CHEMBL4417631, “Oral peptide inhibitors of interleukin-23 receptor and their use to treat inflammatory bowel diseases” (2017) come the findings set out here.

A word on the IC50: it is the midpoint of a concentration-inhibition curve.

The test addresses T1, Interleukin-23 receptor (Homo sapiens, UniProt Q5VWK5).
T1 sequence (Q5VWK5 whole entry): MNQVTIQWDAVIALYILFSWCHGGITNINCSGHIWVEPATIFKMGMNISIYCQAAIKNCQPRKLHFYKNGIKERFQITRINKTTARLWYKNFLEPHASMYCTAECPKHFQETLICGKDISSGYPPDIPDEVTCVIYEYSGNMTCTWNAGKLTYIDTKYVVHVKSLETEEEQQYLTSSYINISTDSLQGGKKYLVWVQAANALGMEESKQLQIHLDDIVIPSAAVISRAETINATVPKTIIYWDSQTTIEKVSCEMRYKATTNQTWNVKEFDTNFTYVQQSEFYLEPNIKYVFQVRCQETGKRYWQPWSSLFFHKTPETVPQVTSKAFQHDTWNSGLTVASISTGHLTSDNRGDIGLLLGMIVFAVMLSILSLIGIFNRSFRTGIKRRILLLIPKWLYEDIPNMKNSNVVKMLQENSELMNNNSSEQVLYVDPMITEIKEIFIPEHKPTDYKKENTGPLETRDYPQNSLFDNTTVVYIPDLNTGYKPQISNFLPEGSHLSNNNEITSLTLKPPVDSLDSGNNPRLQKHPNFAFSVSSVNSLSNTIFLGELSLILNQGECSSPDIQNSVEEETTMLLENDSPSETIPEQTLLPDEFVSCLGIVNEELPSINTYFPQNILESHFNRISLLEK
Kind of test: Inhibition of interleukin-23 binding to human interleukin-23 receptor incubated for 2 hrs by competitive binding ELISA. On the technique in general: In an ELISA, binding on a coated surface is turned into a signal by an enzyme label.

Where a SMILES comes first, the peptide text is derived from it.

As for `CC(=O)N[C@@H](CS)C(=O)N[C@@H](C)C(=O)N[C@@H](CC(=O)O)C(=O)N[C@@H](Cc1c[nH]c2ccccc12)C(=O)N[C@H](C(=O)N[C@@H](CS)C(=O)N[C@@H](Cc1ccc(O)cc1)C(=O)N[C@@H](Cc1c[nH]c2ccccc12)C(=O)N[C@@H](Cc1cnc[nH]1)C(=O)N[C@H](C(=O)N[C@@H](Cc1ccccc1)C(=O)NCC(=O)NCCOCC(=O)N[C@H](CCCCNC(=O)COCC(=O)NCCCC[C@@H](NC(=O)COCCNC(=O)CNC(=O)[C@H](Cc1ccccc1)NC(=O)[C@@H](NC(=O)[C@H](Cc1cnc[nH]1)NC(=O)[C@H](Cc1c[nH]c2ccccc12)NC(=O)[C@H](Cc1ccc(O)cc1)NC(=O)[C@H](CS)NC(=O)[C@@H](NC(=O)[C@H](Cc1c[nH]c2ccccc12)NC(=O)[C@H](CC(=O)O)NC(=O)[C@H](C)NC(=O)[C@H](CS)NC(C)=O)C(C)C)[C@@H](C)O)C(=O)O)C(=O)O)[C@@H](C)O)C(C)C`, the IC50 lay within 25 to 100 nM.
Take `CC(=O)N[C@@H](C)C(=O)N[C@H](C(=O)N[C@@H](CC(=O)O)C(=O)N[C@@H](Cc1c[nH]c2ccccc12)C(=O)N[C@H](C(=O)N[C@@H](CS)C(=O)N[C@@H](Cc1ccc(O)cc1)C(=O)N[C@@H](Cc1c[nH]c2ccccc12)C(=O)N[C@@H](CCCNC(=N)N)C(=O)N[C@@H](CCCCN)C(=O)N[C@@H](Cc1ccccc1)C(=O)NCC(=O)NCCOCC(=O)N[C@H](CCCCN)C(N)=O)C(C)C)C(C)(C)S`: the concentration for half-maximal inhibition (IC50) is 100 to 1000 nM.
With `C[C@@H](O)[C@H](NC(=O)[C@H](CC(=O)O)NC(=O)[C@@H](N)CS)C(=O)N[C@@H](Cc1c[nH]c2ccccc12)C(=O)N[C@@H](CCCCN)C(=O)N[C@@H](CS)C(=O)N[C@@H](Cc1ccc(O)cc1)C(=O)N[C@@H](Cc1c[nH]c2ccccc12)C(=O)N[C@@H](Cc1cnc[nH]1)C(=O)N[C@@H](CCCNC(=N)N)C(=O)N[C@@H](CCC(N)=O)C(=O)N[C@@H](CO)C(N)=O` (H-CDTWKCYWHRQS-NH2) the figure was 500 to 1000 nM; with `CSCC[C@H](NC(=O)[C@H](CS)NC(=O)[C@H](Cc1cnc[nH]1)NC(=O)[C@@H](NC(=O)[C@H](CO)NC(=O)CNC(C)=O)C(C)C)C(=O)N[C@H](C(=O)N[C@@H](Cc1c[nH]c2ccccc12)C(=O)N[C@@H](CCC(=O)O)C(=O)N[C@@H](CS)C(=O)N[C@@H](Cc1ccc(O)cc1)C(=O)N[C@@H](Cc1c[nH]c2ccccc12)C(=O)N[C@@H](Cc1cnc[nH]1)C(=O)N[C@H](C(=O)N[C@@H](Cc1ccccc1)C(=O)NCC(N)=O)[C@@H](C)O)[C@@H](C)O` (Ac-GSVHCMTWECYWHTFG-NH2), 500 to 1000 nM.
With `N=C(N)NCCC[C@H](NC(=O)[C@H](Cc1c[nH]c2ccccc12)NC(=O)[C@H](Cc1ccc(O)cc1)NC(=O)[C@@H]1CCSCc2ccc(cc2)C(=O)N[C@@H](CCC(N)=O)C(=O)N[C@@H](CC(=O)O)C(=O)N[C@@H](Cc2c[nH]c3ccccc23)C(=O)N[C@@H](CCC(N)=O)C(=O)N1)C(=O)N[C@@H](CCC(=O)O)C(=O)N[C@@H](CC(N)=O)C(=O)NCC(=O)NCCOCC(=O)N[C@H](CCCCN)C(N)=O` the figure was above 30000 nM; with `CC(=O)N[C@@H](CS)C(=O)N[C@@H](CCC(N)=O)C(=O)N[C@H](C(=O)N[C@@H](Cc1c[nH]c2ccccc12)C(=O)N[C@@H](CCC(N)=O)C(=O)N[C@@H](CS)C(=O)N[C@@H](Cc1ccc(O)cc1)C(=O)N[C@@H](Cc1c[nH]c2ccccc12)C(=O)N(C)[C@@H](CCC(=O)O)C(=O)N[C@@H](CC(N)=O)C(=O)NCC(=O)NCCOCC(=O)N[C@H](CCCCN)C(=O)O)[C@@H](C)O`, above 1000 nM.
As for `CC(=O)N[C@@H](CS)C(=O)N[C@@H](C)C(=O)N[C@@H](CC(=O)O)C(=O)N[C@@H](Cc1c[nH]c2ccccc12)C(=O)N[C@H](C(=O)N[C@@H](CS)C(=O)N[C@@H](Cc1ccc(O)cc1)C(=O)N[C@@H](Cc1c[nH]c2ccccc12)C(=O)N[C@@H](Cc1cnc[nH]1)C(=O)N[C@H](C(=O)N[C@@H](Cc1ccccc1)C(=O)NCC(=O)N[C@@H](C)C(=O)N1CCC[C@H]1C(=O)N[C@H](CCCCN)C(=O)O)[C@@H](C)O)C(C)C`, the figure is 100 to 1000 nM.
`CC(=O)N[C@@H](CS)C(=O)N[C@@H](CCC(N)=O)C(=O)N[C@H](C(=O)N[C@@H](Cc1c[nH]c2ccccc12)C(=O)N[C@@H](CCC(N)=O)C(=O)N[C@@H](CS)C(=O)N[C@@H](Cc1ccc(O)cc1)C(=O)N[C@@H](Cc1c[nH]c2ccccc12)C(=O)N[C@@H](CCCNC(=N)N)C(=O)N[C@@H](CN)C(=O)N[C@@H](CC(N)=O)C(=O)NCC(=O)NCCOCC(=O)N[C@H](CCCCN)C(N)=O)[C@@H](C)O`: the concentration for half-maximal inhibition (IC50) was below 500 nM.
On to `CC(=O)N[C@@H](CS)C(=O)N[C@@H](C)C(=O)N[C@@H](CC(=O)O)C(=O)N[C@@H](Cc1c[nH]c2ccccc12)C(=O)N[C@@H](CCCCN)C(=O)N[C@@H](CS)C(=O)N[C@@H](Cc1ccc(O)cc1)C(=O)N[C@@H](Cc1c[nH]c2ccccc12)C(=O)N[C@@H](Cc1cnc[nH]1)C(=O)N[C@H](C(=O)N[C@@H](Cc1ccccc1)C(=O)NCC(=O)O)[C@@H](C)O`, for which the IC50 is above 1000 nM.
`CC(=O)N[C@@H](CS)C(=O)N[C@@H](CCC(N)=O)C(=O)N[C@H](C(=O)N[C@@H](Cc1c[nH]c2ccccc12)C(=O)N[C@@H](CCC(N)=O)C(=O)N[C@@H](CS)C(=O)N[C@@H](Cc1ccc(O)cc1)C(=O)N1Cc2ccccc2C[C@H]1CC(=O)N[C@@H](CCCNC(=N)N)C(=O)N[C@H](C(=O)N[C@@H](CC(N)=O)C(=O)NCC(=O)NCCOCC(=O)N[C@H](CCCCN)C(N)=O)C(C)C)[C@@H](C)O` displayed an IC50 above 30000 nM.
As for `CC(=O)N[C@@H](CS)C(=O)N[C@@H](C)C(=O)N[C@@H](CC(=O)O)C(=O)N[C@@H](Cc1c[nH]c2ccccc12)C(=O)N[C@H](C(=O)N[C@@H](CS)C(=O)N[C@@H](Cc1ccc(O)cc1)C(=O)N[C@@H](Cc1cccc2ccccc12)C(=O)N[C@@H](Cc1cnc[nH]1)C(=O)NC(C)(C)C(=O)N[C@H](Cc1ccccc1)C(=O)NCC(N)=O)C(C)C`, the figure is above 1000 nM.
With `CC(=O)N[C@@H](CS)C(=O)N[C@@H](CCC(N)=O)C(=O)N[C@H](C(=O)N[C@@H](Cc1c[nH]c2ccccc12)C(=O)N[C@@H](CCC(=O)O)C(=O)N[C@@H](CS)C(=O)N[C@@H](Cc1ccc(O)cc1)C(=O)N[C@@H](Cc1c[nH]c2ccccc12)C(=O)N[C@@H](Cc1cnc[nH]1)C(=O)N[C@@H](CC(C)C)C(=O)N[C@@H](Cc1ccc(O)cc1)C(=O)NCC(N)=O)[C@@H](C)O` (Ac-CQTWECYWHLYG-NH2) the figure was below 500 nM; with Ac-QTWQCYWRK(Ac)NG-NH2, below 500 nM.
As for `CSC[C@H](NC(=O)[C@H](CCC(N)=O)NC(=O)[C@H](Cc1c[nH]c2ccccc12)NC(=O)[C@@H](NC(=O)[C@H](CCCNC(=N)N)NC(=O)[C@H](C)NC(C)=O)[C@@H](C)O)C(=O)N[C@@H](Cc1ccc(O)cc1)C(=O)N[C@@H](Cc1c[nH]c2ccccc12)C(=O)N[C@@H](CCCNC(=N)N)C(=O)N[C@@H](CCCCN)C(=O)N[C@@H](Cc1ccccc1)C(=O)NCC(=O)NCCOCC(=O)N[C@H](CCCCN)C(N)=O`, the figure is 7570 nM; as for `CC(=O)N[C@@H](CS)C(=O)N[C@@H](C)C(=O)N[C@@H](CC(=O)O)C(=O)N[C@@H](Cc1c[nH]c2ccccc12)C(=O)N[C@H](C(=O)N[C@@H](CS)C(=O)N[C@@H](Cc1ccc(O)cc1)C(=O)N[C@@H](Cc1c[nH]c2ccccc12)C(=O)N[C@@H](Cc1cnc[nH]1)C(=O)N[C@@H](CCCNC(=N)N)C(=O)N[C@@H](CS)C(=O)NCC(=O)N[C@@H](Cc1c[nH]c2ccccc12)C(=O)N[C@@H](Cc1c[nH]c2ccccc12)C(=O)NCC(=O)N[C@@H](CS)C(N)=O)C(C)C` (Ac-CADWVCYWHRCGWWGC-NH2), above 1000 nM.
The molecule `CC(=O)N[C@@H](CS)C(=O)N[C@@H](C)C(=O)N[C@@H](CC(=O)O)C(=O)N[C@@H](Cc1c[nH]c2ccccc12)C(=O)N[C@H](C(=O)N[C@@H](CS)C(=O)N[C@@H](Cc1ccc(O)cc1)C(=O)N[C@@H](Cc1c[nH]c2ccccc12)C(=O)N[C@@H](Cc1cnc[nH]1)C(=O)N[C@H](C(=O)N[C@@H](Cc1ccccc1)C(=O)NCC(=O)NCCOCC(=O)N[C@H](CCCCN)C(=O)O)[C@@H](C)O)C(C)C` registered a concentration for half-maximal inhibition (IC50) below 500 nM.
`CC(=O)N[C@@H](CS)C(=O)N[C@@H](CCCNC(=N)N)C(=O)N[C@@H](CC(=O)O)C(=O)N[C@@H](Cc1c[nH]c2ccccc12)C(=O)N[C@H](C(=O)N[C@@H](CS)C(=O)N[C@@H](Cc1ccc(O)cc1)C(=O)N[C@@H](Cc1c[nH]c2ccccc12)C(=O)N[C@@H](Cc1cnc[nH]1)C(=O)N[C@H](C(=O)N[C@@H](Cc1ccccc1)C(=O)NCC(N)=O)[C@@H](C)O)C(C)C` gave an IC50 of 500 to 1000 nM.
With `CC(=O)N[C@@H](CCCNC(=N)N)C(=O)N[C@@H](CCC(=O)O)C(=O)NCC(=O)N[C@H](C(=O)N[C@@H](CS)C(=O)N[C@@H](CO)C(=O)N[C@H](C(=O)N[C@@H](Cc1c[nH]c2ccccc12)C(=O)N[C@@H](CCCCN)C(=O)N[C@@H](CS)C(=O)N[C@@H](Cc1ccc(O)cc1)C(=O)N[C@@H](Cc1c[nH]c2ccccc12)C(=O)N[C@@H](Cc1cnc[nH]1)C(=O)N[C@H](C(=O)N[C@@H](Cc1ccccc1)C(=O)NCC(N)=O)[C@@H](C)O)[C@@H](C)O)[C@@H](C)O` (Ac-REGTCSTWKCYWHTFG-NH2) the figure was 500 to 1000 nM; with `CC(=O)NCCCC[C@H](NC(=O)[C@](C)(CCCCN)NC(=O)[C@H](Cc1ccc2ccccc2c1)NC(=O)[C@H](CCc1ccc(O)cc1)NC(=O)[C@@H]1CSCC[C@H](NC(C)=O)C(=O)N[C@@H](CCC(N)=O)C(=O)N[C@@H]([C@@H](C)O)C(=O)N[C@@H](Cc2c[nH]c3ccccc23)C(=O)N[C@@H](CCC(N)=O)C(=O)N1)C(=O)N[C@@H](CC(N)=O)C(=O)NCC(N)=O`, above 1000 nM.
